According to patent US20210059959A1, “USE OF CANNABINOIDS IN THE TREATMENT OF MENTAL DISORDERS” (GW Pharma Limited, priority 2015, published 2021):

System: participants with schizophrenia or related psychotic disorder
Experiment: Scale for the Assessment of Negative Symptoms (SANS), double-blind placebo-controlled study of CBD as adjunctive therapy
Format: in vivo, human
Procedure: Example 1 below describes the use of a highly purified cannabis extract comprising cannabidiol (CBD) in a human clinical trial. Example 1 describes data produced in a double-blind, randomised, placebo-controlled, parallel group study of highly purified CBD as adjunctive therapy in first line treatment of schizophrenia or related psychotic disorder.
An eight-week, multi-centre, double-blind, randomised, placebo-controlled, parallel group study was conducted with the aim to determine the efficacy, safety and tolerability of highly purified CBD as adjunctive therapy in first line treatment of schizophrenia or related psychotic disorder.
This study evaluated the efficacy of highly purified CBD compared with placebo on the participant's PANSS Total score, ‘P’, ‘N’, ‘G’, SANS and BACS scores.
Changes from baseline in PANSS scores (Total, ‘P’, ‘N’ and ‘G’), SANS and BACS were recorded at the start of the study (baseline) and at the end of treatment (after 6 weeks treatment with CBD or placebo).
For inclusion in the study participants were required to be male or female aged 18 to 65 years, diagnosed with schizophrenia or a related psychotic disorder (such as schizoaffective or schizophreniform disorder) as defined by the Diagnostic and Statistical Manual of Mental Disorders Version 4. Participants must have been treated for a minimum of four-weeks and be on a stable dose of their current antipsychotic medication. […] A PANSS score in excess of 60 infers that the patient has symptoms related to schizophrenia or related disorders.
The participants were randomised to one of two treatment groups which each consisted of 39 participants. Treatment was administered as either 5 ml CBD (100 mg/ml) oral solution to be taken twice daily or 5 ml matched placebo oral solution to be taken twice daily.
Scale for the Assessment of Negative Symptoms (SANS)
SANS assesses five symptom complexes to obtain clinical ratings of negative symptoms in participants with schizophrenia or related psychotic disorder. They are: affective blunting; alogia (impoverished thinking); avolition/apathy; anhedonia/asociality; and disturbance of attention.
Assessments are conducted on a six-point scale (0=not at all to 5=severe). This scale was measured at each assessment visit (Visit 1-4)

[1] = CBD adjunct, 6 weeks, all patients
[2] = CBD adjunct, 6 weeks, patients on amisulpride
[3] = CBD adjunct, 6 weeks, patients on aripiprazole
[4] = CBD adjunct, 6 weeks, patients on olanzapine
[5] = CBD adjunct, 6 weeks, patients on other antipsychotics
[6] = CBD adjunct, 6 weeks, patients on quetiapine
[7] = CBD adjunct, 6 weeks, patients on risperidone

C=C(C)[C@@H]1CCC(C)=C[C@H]1c1c(O)cc(CCCCC)cc1O [CBD, Cannabidiol]
Change in baseline scores, SANS question 15: Impersistence at work or school [1]: −0.5
Change in baseline scores, SANS question 18: Recreational interests and activity [1]: −0.6
Change in baseline scores, SANS question 19: Sexual interest and activity [1]: −0.4
Change in baseline scores, SANS question 20: Ability to feel closeness and intimacy [1]: −0.3
Change in baseline scores, SANS question 21: Relationships with friends and peers [1]: −0.3
Change in baseline scores, SANS question 22: Global rating of anhedonia [1]: −0.3
Change in baseline scores, SANS question 23: Social inattentiveness [1]: −0.5
Change in baseline scores, SANS question 24: Inattentiveness during mental status testing [1]: −0.6
Change in baseline scores, SANS question 25: Global rating of attention [1]: −0.5
Change in baseline scores, SANS sub-scale 4 (anhedonia/asociality) [1]: −1.9
Change in baseline scores, SANS sub-scale 5 (disturbance of attention) [1]: −1.6
Change in baseline scores, SANS total score [1]: −9.5
Change in baseline scores, SANS question 15: Impersistence at work or school [2]: −0.5
Change in baseline scores, SANS question 18: Recreational interests and activity [2]: 0.0
Change in baseline scores, SANS question 19: Sexual interest and activity [2]: 0.0
Change in baseline scores, SANS question 20: Ability to feel closeness and intimacy [2]: −0.1
Change in baseline scores, SANS question 21: Relationships with friends and peers [2]: −0.1
Change in baseline scores, SANS question 22: Global rating of anhedonia [2]: −0.1
Change in baseline scores, SANS question 23: Social inattentiveness [2]: −0.1
Change in baseline scores, SANS question 24: Inattentiveness during mental status testing [2]: −0.8
Change in baseline scores, SANS question 25: Global rating of attention [2]: 0.0
Change in baseline scores, SANS score [2]: −2.4
Change in baseline scores, SANS sub-scale 4 (anhedonia/asociality) [2]: −0.1
Change in baseline scores, SANS sub-scale 5 (disturbance of attention) [2]: −1.0
Change in baseline scores, SANS question 15: Impersistence at work or school [3]: −0.3
Change in baseline scores, SANS question 18: Recreational interests and activity [3]: −0.1
Change in baseline scores, SANS question 19: Sexual interest and activity [3]: −0.1
Change in baseline scores, SANS question 20: Ability to feel closeness and intimacy [3]: 0.0
Change in baseline scores, SANS question 21: Relationships with friends and peers [3]: −0.1
Change in baseline scores, SANS question 22: Global rating of anhedonia [3]: 0.0
Change in baseline scores, SANS question 23: Social inattentiveness [3]: −0.4
Change in baseline scores, SANS question 24: Inattentiveness during mental status testing [3]: −0.5
Change in baseline scores, SANS question 25: Global rating of attention [3]: −0.4
Change in baseline scores, SANS score [3]: −4.7
Change in baseline scores, SANS sub-scale 4 (anhedonia/asociality) [3]: −0.2
Change in baseline scores, SANS sub-scale 5 (disturbance of attention) [3]: −1.3
Change in baseline scores, SANS question 15: Impersistence at work or school [4]: −1.2
Change in baseline scores, SANS question 18: Recreational interests and activity [4]: −1.3
Change in baseline scores, SANS question 19: Sexual interest and activity [4]: −1.0
Change in baseline scores, SANS question 20: Ability to feel closeness and intimacy [4]: −1.0
Change in baseline scores, SANS question 21: Relationships with friends and peers [4]: −0.6
Change in baseline scores, SANS question 22: Global rating of anhedonia [4]: −0.8
Change in baseline scores, SANS question 23: Social inattentiveness [4]: −0.9
Change in baseline scores, SANS question 24: Inattentiveness during mental status testing [4]: −0.7
Change in baseline scores, SANS question 25: Global rating of attention [4]: −0.9
Change in baseline scores, SANS score [4]: −20.5
Change in baseline scores, SANS sub-scale 4 (anhedonia/asociality) [4]: −4.9
Change in baseline scores, SANS sub-scale 5 (disturbance of attention) [4]: −2.5
Change in baseline scores, SANS question 18: Recreational interests and activity [5]: −0.4
Change in baseline scores, SANS question 19: Sexual interest and activity [5]: −0.3
Change in baseline scores, SANS question 20: Ability to feel closeness and intimacy [5]: −0.1
Change in baseline scores, SANS question 21: Relationships with friends and peers [5]: −0.2
Change in baseline scores, SANS question 22: Global rating of anhedonia [5]: −0.2
Change in baseline scores, SANS question 23: Social inattentiveness [5]: −0.9
Change in baseline scores, SANS question 24: Inattentiveness during mental status testing [5]: −1.3
Change in baseline scores, SANS question 25: Global rating of attention [5]: −0.3
Change in baseline scores, SANS score [5]: −10.6
Change in baseline scores, SANS sub-scale 4 (anhedonia/asociality) [5]: −1.2
Change in baseline scores, SANS sub-scale 5 (disturbance of attention) [5]: −2.5
Change in baseline scores, SANS question 18: Recreational interests and activity [6]: −1.3
Change in baseline scores, SANS question 19: Sexual interest and activity [6]: −1.5
Change in baseline scores, SANS question 20: Ability to feel closeness and intimacy [6]: −0.4
Change in baseline scores, SANS question 21: Relationships with friends and peers [6]: −0.7
Change in baseline scores, SANS question 22: Global rating of anhedonia [6]: −1.3
Change in baseline scores, SANS question 23: Social inattentiveness [6]: −0.6
Change in baseline scores, SANS question 24: Inattentiveness during mental status testing [6]: −0.9
Change in baseline scores, SANS question 25: Global rating of attention [6]: −0.5
Change in baseline scores, SANS score [6]: −10.4
Change in baseline scores, SANS sub-scale 4 (anhedonia/asociality) [6]: −5.1
Change in baseline scores, SANS sub-scale 5 (disturbance of attention) [6]: −1.8
Change in baseline scores, SANS question 15: Impersistence at work or school [7]: −0.3
Change in baseline scores, SANS question 18: Recreational interests and activity [7]: −0.3
Change in baseline scores, SANS question 19: Sexual interest and activity [7]: 0.0
Change in baseline scores, SANS question 20: Ability to feel closeness and intimacy [7]: 0.0
Change in baseline scores, SANS question 21: Relationships with friends and peers [7]: −0.1
Change in baseline scores, SANS question 22: Global rating of anhedonia [7]: −0.2
Change in baseline scores, SANS question 23: Social inattentiveness [7]: 0.2
Change in baseline scores, SANS question 24: Inattentiveness during mental status testing [7]: −0.1
Change in baseline scores, SANS question 25: Global rating of attention [7]: 0.0
Change in baseline scores, SANS score [7]: −3.6
Change in baseline scores, SANS sub-scale 4 (anhedonia/asociality) [7]: −0.4
Change in baseline scores, SANS sub-scale 5 (disturbance of attention) [7]: 0.1
Change in baseline scores, SANS question 15: Impersistence at work or school: difference (CBD vs placebo, all patients, P = 0.0187): (−0.4)
